Experimental data published in patent US20130317034A1, “COMBINATION THERAPY FOR TREATING DIABETES” (Japan Tobacco Inc., priority 2010, published 2013).

Experiments:
[1] = Food consumption, body weight gain and body weight in rats fed a high fat diet; assay type: in vivo; conditions: Mean ± S.E. (n = 8)
Description: Forty-four eight week old male rats (Charles River Laboratories Japan, Inc.) were used for the experiment. Body weights and food weight were measured six days before and on the day before the dosing of the compound of formula (I). Body weight gain and food consumption were calculated for this period. Animals were fasted for 24 hours the day before dosing with the compound of formula (I). Using the body weights on the day of the dosing, body weight gain and food consumption as indicators, 32 rats were selected from those closest to the mean values. The rats were assigned to four groups (control, compound of formula (I) only, DPP-IV inhibitor only, and combination of compound of formula (I) and DPP-IV inhibitor) with eight animals in each group. One-way analysis of variance was performed using SAS Preclinical Package Version 5.0 and SAS System Version 8.2 (SAS Institute Japan Co., Ltd.) to verify that no significant intergroup differences were present after group allocation.
(§1) After the rats were fasted for 24 hours, either the compound of formula (I) (30 mg/kg) or vehicle (0.5% MC) was dosed orally. The rats were immediately fed with a high-fat diet for six hours and fasted overnight. Glucose tolerance tests (GTTs) were performed 30 minutes after dosing either sitagliptin or vehicle (0.5% MC). Dosing for each group is described in Tables 1 and 2 below.
Food consumption was calculated according to the following formula: food consumption (g)=food weight before feeding (g)−food weight after feeding (g). Body weight gain was calculated according the following formula: body weight gain (g)=body weight after feeding (g)-body weight before feeding (g). There were no significant differences between the groups in food consumption and body weight gain for six hours after dosing, and in body weight at the start of GTT (Table 3).

plasma GLP-1 = assay: Plasma GLP-1 level at the start of the GTT (GLP-1 (Active) ELISA); assay type: in vivo, rats
Description: (§2) This example studied the combined effects of the compound of formula (I) and sitagliptin, i.e., a DPP-IV inhibitor, on plasma GLP-1 levels and glucose tolerance as evaluated in rats fed a high fat diet.
as §1
(§3) At the start of the GTT, blood was collected to measure plasma GLP-1. The plasma glucose and insulin concentrations were measured before and after loading with the glucose solution. For the preparation of the glucose solution, glucose was diluted in saline at a concentration of 0.4 g/mL.
For the GTT, the rats were fasted overnight after six hours feeding. On the following day, 600-700 μL of blood were collected from the tail vein into tubes containing a DPP-IV inhibitor, aprotinin, and EDTA. Thereafter, a glucose solution at a dose of 1 g/2.5 mL/kg was loaded intraperitoneally. […]
After 200 μL of plasma sampled before the glucose loading were added with […] of ethanol, the solution was thoroughly mixed. […] The GLP-1 concentration was measured by the ELISA method using a GLP-1 (Active) ELISA kit.

rats fed a high fat diet [2] = assay: Glucose tolerance test (GTT): plasma glucose levels; assay type: in vivo
Description: as §2, §1, §3
(§4) For the GTT, the rats were fasted overnight after six hours feeding. On the following day, 600-700 μL of blood were collected from the tail vein into tubes containing a DPP-IV inhibitor, aprotinin, and EDTA. Thereafter, a glucose solution at a dose of 1 g/2.5 mL/kg was loaded intraperitoneally. At 10, 30, 60, and 120 minutes after loading the glucose solution, 200-300 μL of blood were collected from the tail vein into tubes containing heparin. The blood was centrifuged at 10,000×g and 4° C. for five minutes to obtain the plasma.

rats fed a high fat diet [3] = assay: Glucose tolerance test (GTT): plasma insulin levels; assay type: in vivo
Description: as §2, §1, §3, §4

[4] = six hours high-fat feeding after dosing, compound of formula (I) 30 mg/kg PO
[5] = 0 min after glucose loading (1 g/kg ip), compound of formula (I) 30 mg/kg PO, sitagliptin 10 mg/kg PO

## N[C@@H](CC(=O)N1CCn2c(nnc2C(F)(F)F)C1)Cc1cc(F)c(F)cc1F [sitagliptin]
[1]; before GTT
  Body Weight: 352.7 ± 6.9 g
[1]; [4]
  Body Weight Gain: 15.5 ± 1.2 g
  Food Consumption: 15.2 ± 1.3 g
Plasma GLP-1; at the start of the GTT, compound of formula (I) 30 mg/kg PO day before, sitagliptin 10 mg/kg PO 30 min before GTT, Mean ± S.E. (n = 8)
  Plasma GLP-1 Level: 1.800 ± 0.270 pmol/L
Plasma GLP-1; versus control group
  Plasma GLP-1 levels prior to glucose loading, in words: significantly higher
Rats fed a high fat diet [2]; [5]
  Plasma Glucose Level: 149 ± 6 mg/dL
Rats fed a high fat diet [2]; 10 min after glucose loading
  Plasma Glucose Level: 264 ± 16 mg/dL
Rats fed a high fat diet [2]; 30 min after glucose loading
  Plasma Glucose Level: 255 ± 12 mg/dL
Rats fed a high fat diet [2]; 60 min after glucose loading
  Plasma Glucose Level: 185 ± 8 mg/dL
Rats fed a high fat diet [2]; 120 min after glucose loading
  Plasma Glucose Level: 157 ± 5 mg/dL
Rats fed a high fat diet [2]; at 60 minutes after glucose loading, versus control group
  Plasma glucose levels in the GTT, in words: significantly decreased
Rats fed a high fat diet [2]; during the GTT, 0-120 min
  AUC of Plasma Glucose Level: 24095 ± 981 mg·min/dL
Rats fed a high fat diet [2]; versus control group
  AUC for the glucose levels during the GTT, in words: lower than that for the control group, although there were no statistically significant differences
Rats fed a high fat diet [3]; [5]
  Plasma Insulin Level: 2.350 ± 0.439 ng/mL
Rats fed a high fat diet [3]; 10 min after glucose loading
  Plasma Insulin Level: 4.968 ± 0.562 ng/mL
Rats fed a high fat diet [3]; 30 min after glucose loading
  Plasma Insulin Level: 4.595 ± 0.675 ng/mL
Rats fed a high fat diet [3]; 60 min after glucose loading
  Plasma Insulin Level: 3.253 ± 0.749 ng/mL
Rats fed a high fat diet [3]; 120 min after glucose loading
  Plasma Insulin Level: 3.046 ± 0.435 ng/mL
Rats fed a high fat diet [3]; during the GTT, 0-120 min
  AUC of Plasma Insulin Level: 438.898 ± 72.779 ng·min/mL
Rats fed a high fat diet [3]; versus control group
  Plasma insulin levels during the GTT, in words: higher
